The results in this text go back to paper PMC3914206.

SMILES strings stand for the structures.

What all share (format): binding
For experiment [1], the target named is T1, panel of 442 kinases (Homo sapiens, UniProt Q96BR1).
T1 construct: purchased KINOMEscan
T1 sequence (Q96BR1 1-496): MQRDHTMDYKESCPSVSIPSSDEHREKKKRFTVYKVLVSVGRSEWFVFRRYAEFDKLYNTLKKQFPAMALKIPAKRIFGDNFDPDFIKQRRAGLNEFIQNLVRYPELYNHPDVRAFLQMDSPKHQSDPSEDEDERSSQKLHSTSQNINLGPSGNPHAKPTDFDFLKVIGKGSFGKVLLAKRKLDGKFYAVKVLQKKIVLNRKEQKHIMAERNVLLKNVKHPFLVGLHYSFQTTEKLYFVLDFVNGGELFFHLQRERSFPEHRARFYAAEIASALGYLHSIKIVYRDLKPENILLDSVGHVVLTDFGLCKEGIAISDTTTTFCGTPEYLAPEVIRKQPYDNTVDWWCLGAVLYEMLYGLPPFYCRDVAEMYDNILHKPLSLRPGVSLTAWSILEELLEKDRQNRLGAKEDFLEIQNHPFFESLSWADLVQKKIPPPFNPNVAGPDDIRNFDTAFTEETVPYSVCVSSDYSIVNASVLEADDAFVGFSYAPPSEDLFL
The conditions noted are these: kinase SGK3; compound concentration 10 µM. The text has this:
(§1) We assessed the selectivity of members of this scaffold using the KINOMEscan methodology across a near comprehensive panel of 442 kinases [[18,27]].

For experiment [2], the target named is T2, panel of 442 kinases (Homo sapiens, UniProt Q13164).
T2 construct: purchased KINOMEscan
The conditions noted are these: Compound Concentration 10 µM.
Excerpt: as §1

Experiment [3] has as its target T3, panel of 442 kinases (Homo sapiens, UniProt O94804).
T3 construct: purchased KINOMEscan
The conditions noted are these: Compound Concentration 10 µM.
Excerpt: as §1

T3 sequence (O94804 whole entry): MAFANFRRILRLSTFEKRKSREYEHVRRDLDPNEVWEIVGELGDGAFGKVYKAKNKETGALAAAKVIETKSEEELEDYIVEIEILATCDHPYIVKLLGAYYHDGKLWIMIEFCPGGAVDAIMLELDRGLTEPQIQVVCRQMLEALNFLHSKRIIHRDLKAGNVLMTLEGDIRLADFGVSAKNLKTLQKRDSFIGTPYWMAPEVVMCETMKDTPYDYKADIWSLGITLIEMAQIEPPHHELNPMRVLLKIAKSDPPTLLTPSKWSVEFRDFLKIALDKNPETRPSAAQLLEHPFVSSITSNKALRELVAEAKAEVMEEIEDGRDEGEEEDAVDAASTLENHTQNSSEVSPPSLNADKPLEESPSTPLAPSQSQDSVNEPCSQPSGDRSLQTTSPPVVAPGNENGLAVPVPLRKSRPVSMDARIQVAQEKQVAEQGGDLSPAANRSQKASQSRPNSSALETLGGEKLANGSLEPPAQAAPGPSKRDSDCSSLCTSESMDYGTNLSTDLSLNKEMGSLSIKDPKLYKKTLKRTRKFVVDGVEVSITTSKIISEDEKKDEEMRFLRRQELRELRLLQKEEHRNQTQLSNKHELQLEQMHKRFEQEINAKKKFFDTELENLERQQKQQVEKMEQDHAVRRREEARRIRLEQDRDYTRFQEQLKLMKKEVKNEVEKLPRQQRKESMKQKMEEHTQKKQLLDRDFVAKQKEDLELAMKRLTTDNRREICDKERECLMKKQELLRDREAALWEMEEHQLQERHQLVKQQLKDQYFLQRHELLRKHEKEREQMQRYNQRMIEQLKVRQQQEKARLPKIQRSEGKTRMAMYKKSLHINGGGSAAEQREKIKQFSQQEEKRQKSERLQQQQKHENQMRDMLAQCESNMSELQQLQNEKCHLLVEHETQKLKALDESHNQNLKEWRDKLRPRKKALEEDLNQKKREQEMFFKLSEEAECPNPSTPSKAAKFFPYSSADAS
T2 sequence (Q13164 whole entry): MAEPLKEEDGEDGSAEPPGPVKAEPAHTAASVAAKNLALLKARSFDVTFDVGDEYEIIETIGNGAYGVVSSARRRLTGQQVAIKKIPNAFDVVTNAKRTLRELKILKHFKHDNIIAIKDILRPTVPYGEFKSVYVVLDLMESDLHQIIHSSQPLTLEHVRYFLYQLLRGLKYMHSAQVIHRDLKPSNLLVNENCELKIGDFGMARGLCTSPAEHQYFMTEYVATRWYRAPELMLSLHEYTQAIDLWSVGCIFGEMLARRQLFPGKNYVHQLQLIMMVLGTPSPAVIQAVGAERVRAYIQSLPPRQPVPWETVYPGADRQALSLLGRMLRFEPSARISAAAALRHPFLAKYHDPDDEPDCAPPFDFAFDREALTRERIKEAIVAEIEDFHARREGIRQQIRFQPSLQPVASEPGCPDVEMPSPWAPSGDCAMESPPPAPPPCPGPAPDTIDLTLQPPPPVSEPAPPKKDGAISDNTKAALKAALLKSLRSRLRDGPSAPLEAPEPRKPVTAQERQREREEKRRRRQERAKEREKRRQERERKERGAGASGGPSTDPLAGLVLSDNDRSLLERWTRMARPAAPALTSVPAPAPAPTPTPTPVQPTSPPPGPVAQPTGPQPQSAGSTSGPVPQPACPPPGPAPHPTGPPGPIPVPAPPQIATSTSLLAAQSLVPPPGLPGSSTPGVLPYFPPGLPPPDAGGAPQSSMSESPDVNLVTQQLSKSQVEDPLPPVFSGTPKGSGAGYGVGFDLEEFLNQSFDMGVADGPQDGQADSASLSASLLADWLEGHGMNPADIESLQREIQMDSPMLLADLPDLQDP

Turning to `COc1cc(C(=O)N2CCC(N3CCN(C)CC3)CC2)ccc1Nc1ncc2c(n1)N(C)c1ccccc1C(=O)N2C` [15 (LRRK2-IN-1)], the “% Ctrl, SGK3” value at panel of 442 kinases [1] was found to be 95 % Ctrl. Further, the “KINOMEscan: ERK5” value at panel of 442 kinases [2] came out at 0.05. Also, the “KINOMEscan: LOK” value at panel of 442 kinases [3] amounted to 100.
Take `COc1cc(C(=O)N2CCC(N3CCN(C)CC3)CC2)ccc1Nc1ncc2c(n1)N1CCc3cccc(c31)C(=O)N2C` [Compound 24]: the “% Ctrl, SGK3” value on panel of 442 kinases [1] came to 100 % Ctrl. The “KINOMEscan: LOK” value at panel of 442 kinases [3] worked out at 70.
Take `COc1cc(C(=O)N2CCC(N3CCN(C)CC3)CC2)ccc1Nc1ncc2c(n1)N(C1CCCC1)c1ccccc1C(=O)N2C` [Compound 25, 11-cyclopentyl-2-((2-methoxy-4-(4-(4-methylpiperazin-1-yl)piperidine-1-carbonyl)phenyl)amino)-5-methyl-5H-benzo[e]pyrimido[5,4-b][1,4]diazepin-6(11H)-one]: the “% Ctrl, SGK3” value at panel of 442 kinases [1] was determined as 100 % Ctrl. For the same compound, on panel of 442 kinases [2], the “KINOMEscan: ERK5” value amounted to 0.05. The “KINOMEscan: LOK” value at panel of 442 kinases [3] amounted to 100.
`CCOc1cc(C(=O)N2CCC(N3CCN(C)CC3)CC2)ccc1Nc1ncc2c(n1)N(C1CCCC1)c1ccccc1C(=O)N2C` [Compound 26]: the “% Ctrl, SGK3” value at panel of 442 kinases [1] was found to be 83 % Ctrl. Moreover, the “KINOMEscan: ERK5” value at panel of 442 kinases [2] was determined as 0.1. Further, the “KINOMEscan: LOK” value on panel of 442 kinases [3] is recorded as 100.
